Common to all, as to format: cell-based
Assay [1] addresses von Hippel-Lindau disease tumor suppressor/SWI/SNF-related matrix-associated actin-dependent regulator of chromatin subfamily A member 4 (Homo sapiens, UniProt P40337+P51532). The experiment in a line: Protac activity at E3 ubiquitin-protein ligase/SMARCA4 in human VCaP cells assessed as SMARCA4 degradation incubated for 16 hrs by Western blot analysis relative to control. In general terms: A western blot detects proteins with antibodies after separation by electrophoresis.

Assay [2] deals with von Hippel-Lindau disease tumor suppressor/SWI/SNF-related matrix-associated actin-dependent regulator of chromatin subfamily A member 2 (Homo sapiens) (UniProt P51531+P40337). Put plainly: Protac activity at E3 ubiquitin-protein ligase/SMARCA2 in human VCaP cells assessed as SMARCA2 degradation at 100 nM incubated for 16 hrs by Western blot analysis relative to control.
Chain of von Hippel-Lindau disease tumor suppressor/SWI/SNF-related matrix-associated actin-dependent regulator of chromatin subfamily A member 2 (Homo sapiens) (P40337 whole entry, looked up): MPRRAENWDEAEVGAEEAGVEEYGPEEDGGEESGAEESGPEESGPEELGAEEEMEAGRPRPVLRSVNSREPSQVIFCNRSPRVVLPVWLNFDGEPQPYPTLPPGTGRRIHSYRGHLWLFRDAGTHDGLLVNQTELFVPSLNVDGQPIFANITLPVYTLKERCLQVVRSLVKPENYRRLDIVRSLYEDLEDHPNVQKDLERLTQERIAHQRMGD
Chain of von Hippel-Lindau disease tumor suppressor/SWI/SNF-related matrix-associated actin-dependent regulator of chromatin subfamily A member 2 (Homo sapiens) (P51531 whole entry, looked up): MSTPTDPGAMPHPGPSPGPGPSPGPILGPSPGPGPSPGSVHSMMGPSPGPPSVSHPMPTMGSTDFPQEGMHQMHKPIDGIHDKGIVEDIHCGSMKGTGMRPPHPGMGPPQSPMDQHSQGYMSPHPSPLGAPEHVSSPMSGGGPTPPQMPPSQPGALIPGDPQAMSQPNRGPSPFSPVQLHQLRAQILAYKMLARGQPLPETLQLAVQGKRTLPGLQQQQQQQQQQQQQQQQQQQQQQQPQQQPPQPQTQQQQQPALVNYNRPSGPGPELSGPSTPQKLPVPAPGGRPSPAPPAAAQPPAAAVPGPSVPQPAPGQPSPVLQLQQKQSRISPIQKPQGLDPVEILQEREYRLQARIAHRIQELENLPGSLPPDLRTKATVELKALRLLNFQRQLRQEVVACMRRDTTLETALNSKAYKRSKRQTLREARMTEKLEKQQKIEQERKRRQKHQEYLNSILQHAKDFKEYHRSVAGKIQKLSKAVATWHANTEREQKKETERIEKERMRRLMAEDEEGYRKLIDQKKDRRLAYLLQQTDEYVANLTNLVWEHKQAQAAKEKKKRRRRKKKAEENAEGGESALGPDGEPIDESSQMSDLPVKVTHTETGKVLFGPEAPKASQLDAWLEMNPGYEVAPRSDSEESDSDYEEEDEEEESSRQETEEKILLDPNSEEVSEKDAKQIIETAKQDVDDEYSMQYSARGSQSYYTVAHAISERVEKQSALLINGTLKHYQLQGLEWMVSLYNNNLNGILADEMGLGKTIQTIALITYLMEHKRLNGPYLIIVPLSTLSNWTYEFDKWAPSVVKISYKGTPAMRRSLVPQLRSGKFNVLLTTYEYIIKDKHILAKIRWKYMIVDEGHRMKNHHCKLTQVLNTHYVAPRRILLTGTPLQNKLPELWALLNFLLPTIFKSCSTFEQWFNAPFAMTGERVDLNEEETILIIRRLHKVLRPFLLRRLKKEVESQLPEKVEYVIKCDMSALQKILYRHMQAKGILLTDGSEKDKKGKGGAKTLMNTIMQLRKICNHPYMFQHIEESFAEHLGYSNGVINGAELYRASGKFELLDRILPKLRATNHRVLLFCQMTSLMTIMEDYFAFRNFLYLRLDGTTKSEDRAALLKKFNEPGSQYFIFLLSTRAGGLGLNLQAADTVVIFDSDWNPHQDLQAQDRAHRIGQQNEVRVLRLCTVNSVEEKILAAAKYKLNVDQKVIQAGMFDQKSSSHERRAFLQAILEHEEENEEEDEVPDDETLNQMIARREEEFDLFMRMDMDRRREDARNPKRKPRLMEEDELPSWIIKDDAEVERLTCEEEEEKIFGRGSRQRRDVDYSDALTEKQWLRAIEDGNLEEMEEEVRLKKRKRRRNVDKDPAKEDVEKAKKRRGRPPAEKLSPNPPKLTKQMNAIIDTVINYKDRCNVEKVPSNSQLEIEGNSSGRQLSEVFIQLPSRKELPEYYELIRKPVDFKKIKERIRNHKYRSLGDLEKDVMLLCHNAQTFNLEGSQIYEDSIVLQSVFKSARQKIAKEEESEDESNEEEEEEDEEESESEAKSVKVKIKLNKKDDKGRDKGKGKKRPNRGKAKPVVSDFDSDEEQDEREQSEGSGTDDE
For assay [3], the target named is von Hippel-Lindau disease tumor suppressor/SWI/SNF-related matrix-associated actin-dependent regulator of chromatin subfamily A member 2 (Homo sapiens, UniProt P40337+P51531). Put plainly: Protac activity at E3 ubiquitin-protein ligase/SMARCA2 in human VCaP cells assessed as SMARCA2 degradation incubated for 16 hrs by Western blot analysis relative to control.
Chain of von Hippel-Lindau disease tumor suppressor/SWI/SNF-related matrix-associated actin-dependent regulator of chromatin subfamily A member 2 (P51531 whole entry): as the sequence (P51531 whole entry, looked up) above
Chain of von Hippel-Lindau disease tumor suppressor/SWI/SNF-related matrix-associated actin-dependent regulator of chromatin subfamily A member 2 (P40337 whole entry): as the sequence (P40337 whole entry, looked up) above
In assay [4] the target is von Hippel-Lindau disease tumor suppressor/SWI/SNF-related matrix-associated actin-dependent regulator of chromatin subfamily A member 4 (Homo sapiens) (UniProt P51532+P40337). The experiment in a line: Protac activity at E3 ubiquitin-protein ligase/SMARCA4 in human VCaP cells assessed as SMARCA4 degradation at 100 nM incubated for 16 hrs by Western blot analysis relative to control.
Chain of von Hippel-Lindau disease tumor suppressor/SWI/SNF-related matrix-associated actin-dependent regulator of chromatin subfamily A member 4 (Homo sapiens) (P40337 whole entry, looked up): as above
Chain of von Hippel-Lindau disease tumor suppressor/SWI/SNF-related matrix-associated actin-dependent regulator of chromatin subfamily A member 4 (Homo sapiens) (P51532 whole entry, looked up): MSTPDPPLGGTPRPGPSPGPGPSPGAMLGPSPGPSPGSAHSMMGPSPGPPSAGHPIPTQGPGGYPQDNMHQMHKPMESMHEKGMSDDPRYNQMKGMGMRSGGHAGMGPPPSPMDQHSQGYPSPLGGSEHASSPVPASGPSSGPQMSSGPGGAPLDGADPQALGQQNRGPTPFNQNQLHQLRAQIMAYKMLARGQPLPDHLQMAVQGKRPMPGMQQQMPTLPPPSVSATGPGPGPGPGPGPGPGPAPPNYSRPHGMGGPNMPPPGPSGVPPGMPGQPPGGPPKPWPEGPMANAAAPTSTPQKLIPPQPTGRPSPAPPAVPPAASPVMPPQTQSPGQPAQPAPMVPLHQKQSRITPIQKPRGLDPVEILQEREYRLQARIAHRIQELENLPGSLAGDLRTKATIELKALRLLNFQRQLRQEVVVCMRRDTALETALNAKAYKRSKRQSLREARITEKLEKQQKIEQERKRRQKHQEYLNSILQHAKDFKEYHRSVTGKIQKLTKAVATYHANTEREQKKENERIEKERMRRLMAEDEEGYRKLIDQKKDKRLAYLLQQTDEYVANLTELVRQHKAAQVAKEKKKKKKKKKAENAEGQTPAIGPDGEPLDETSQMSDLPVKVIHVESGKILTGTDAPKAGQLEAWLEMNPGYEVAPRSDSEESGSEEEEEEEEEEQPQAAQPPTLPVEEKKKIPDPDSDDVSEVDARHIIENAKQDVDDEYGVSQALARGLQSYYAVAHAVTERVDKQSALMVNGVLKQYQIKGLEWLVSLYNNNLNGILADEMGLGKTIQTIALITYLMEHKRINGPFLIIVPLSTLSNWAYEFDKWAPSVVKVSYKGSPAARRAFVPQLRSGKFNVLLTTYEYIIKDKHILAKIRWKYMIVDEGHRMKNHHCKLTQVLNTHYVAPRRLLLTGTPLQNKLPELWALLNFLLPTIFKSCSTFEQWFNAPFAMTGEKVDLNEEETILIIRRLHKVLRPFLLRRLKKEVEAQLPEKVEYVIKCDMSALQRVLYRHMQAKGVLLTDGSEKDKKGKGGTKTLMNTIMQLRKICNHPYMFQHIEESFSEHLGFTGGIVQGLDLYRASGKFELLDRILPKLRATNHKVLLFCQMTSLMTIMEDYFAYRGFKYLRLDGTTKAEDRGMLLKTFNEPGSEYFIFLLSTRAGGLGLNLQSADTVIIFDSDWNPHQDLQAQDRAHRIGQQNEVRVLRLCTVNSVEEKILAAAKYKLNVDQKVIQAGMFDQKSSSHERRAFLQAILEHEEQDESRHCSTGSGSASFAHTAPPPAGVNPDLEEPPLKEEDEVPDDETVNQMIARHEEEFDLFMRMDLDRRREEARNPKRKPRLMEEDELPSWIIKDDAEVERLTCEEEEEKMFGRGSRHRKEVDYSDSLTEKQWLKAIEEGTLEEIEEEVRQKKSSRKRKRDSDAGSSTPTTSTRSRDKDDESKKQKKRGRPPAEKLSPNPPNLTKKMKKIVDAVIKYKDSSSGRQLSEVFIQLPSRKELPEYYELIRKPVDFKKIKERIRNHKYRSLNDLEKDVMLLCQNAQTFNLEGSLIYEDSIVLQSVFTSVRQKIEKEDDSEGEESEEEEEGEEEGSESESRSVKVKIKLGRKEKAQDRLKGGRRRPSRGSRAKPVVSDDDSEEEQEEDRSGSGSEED

Some results are limits rather than exact numbers.

Chain of von Hippel-Lindau disease tumor suppressor/SWI/SNF-related matrix-associated actin-dependent regulator of chromatin subfamily A member 4 (P51532 whole entry): as the sequence (P51532 whole entry, looked up) above
Chain of von Hippel-Lindau disease tumor suppressor/SWI/SNF-related matrix-associated actin-dependent regulator of chromatin subfamily A member 4 (P40337 whole entry): as the sequence (P40337 whole entry, looked up) above

As to `Cc1ncsc1-c1ccc([C@H](C)NC(=O)[C@@H]2C[C@@H](O)CN2C(=O)[C@@H](NC(=O)CN2CCC(c3ccc(-c4cnnc(-c5ccccc5O)c4)cc3)CC2)C(C)(C)C)cc1`, the EC50 in assay [1] and in assay [3] was less than 250 nM throughout. The Activity in assay [2] worked out at 91%; in assay [4], 0%.

For the compound `Cc1ncsc1-c1ccc([C@H](C)NC(=O)[C@@H]2C[C@@H](O)CN2C(=O)[C@@H](NC(=O)C2CCN(c3ccc(-c4cnnc(-c5ccccc5O)c4)cc3)CC2)C(C)(C)C)cc1`, the Activity worked out at 76% in assay [2] and 0% in assay [4].

Turning to `Cc1ncsc1-c1ccc(CNC(=O)[C@@H]2C[C@@H](O)CN2C(=O)[C@@H](NC(=O)CN2CCC(c3ccc(-c4cnnc(-c5ccccc5O)c4)cc3)CC2)C(C)(C)C)cc1`, the Activity in assay [2] stood at 75%; in assay [4], 0%.

Turning to `Cc1ncsc1-c1ccc([C@H](C)NC(=O)[C@@H]2C[C@@H](O)CN2C(=O)[C@@H](NC(=O)CN2CCN(c3ccc(-c4cnnc(-c5ccccc5O)c4)cn3)CC2)C(C)(C)C)cc1`, the EC50 in assay [1] and in assay [3] was less than 250 nM throughout. Also, the values for the Activity in assay [2] and in assay [4] were 94% and 0%, respectively.

On to `Cc1ncsc1-c1ccc([C@H](C)NC(=O)[C@@H]2C[C@@H](O)CN2C(=O)[C@@H](NC(=O)CC2CCN(c3ccc(-c4cnnc(-c5ccccc5O)c4)cc3)CC2)C(C)(C)C)cc1`, for which the EC50 in assay [1] and in assay [3] was less than 250 nM in each case. The Activity in assay [2] came out at 97%; in assay [4], 40%.

As to `Cc1ncsc1-c1ccc([C@H](C)NC(=O)[C@@H]2C[C@@H](O)CN2C(=O)[C@@H](NC(=O)CN2CCN(c3ccc(-c4cnnc(-c5ccccc5O)c4)cc3)CC2)C(C)(C)C)cc1`, the EC50 in assay [1] and in assay [3] was less than 250 nM in each case. The Activity in assay [2] was 94%; in assay [4], 0%.

For the origin of these results see ChEMBL document CHEMBL5137101, “Application of Selective SMARCA2/4 PROTAC for Mutant Cancer Therapy” (ACS Med Chem Lett, 2022).
